Data: patent US20200163984A1, “USE OF ISOVALERYL SPIRAMYCIN I, II AND/OR III IN MANUFACTURING MEDICAMENT FOR TREATING AND/OR PREVENTING TUMOR, AND MEDICAMENT” (SHENYANG FUYANG PHARMACEUTICAL TECHNOLOGY CO., LTD., priority 2017, published 2020)
Where two headings read alike, the source gives them in different places.

Legend:
[1] = system: transplanted tumor of human non-small cell lung cancer cell H1299
Procedure: (§1) Then cell concentration was adjusted to 1×10^7/ml with matrigel, then each nude mouse was inoculated subcutaneously with 0.2 ml of cells at its right armpit and recorded as the first day of inoculation. When the tumor grows to be greater than or equal to 100 mm^3, the mice were randomly divided into 11 groups with 6 mice in each group: isovaleryl spiramycin I groups with doses of 25, 50 and 100 mg/kg, isovaleryl spiramycin II groups with doses of 25, 50 and 100 mg/kg, and isovaleryl spiramycin III groups with doses of 25, 50 and 100 mg/kg. Each group was continuously administered intragastrically for 30 days with a dose of 20 ml/kg. The mice were sacrificed the next day after drug withdrawal and the indicators were tested. The long diameter and short diameter of the tumor, and the body weight of each mouse were recorded every 3 days from drug administration to nude mouse sacrifice.
(§2) The body weight of the nude mice and the long diameter (a) and short diameter (b) of the transplanted tumor were measured every 3 days, and the tumor volume (v), relative tumor volume (RTV) and relative tumor proliferation rate (T/C) are calculated respectively according to the following formulas, wherein V=a×b^2/2; RTV=V/V0 (V0 is the tumor volume before administration, V is the tumor volume before sacrifice), and T/C (%)=treatment group RTV/model control group RTV×100%.
(§3) Each mouse was weighed and sacrificed. After the tumor was completely stripped off from the body of the mouse, the non-tumor tissues such as blood stains and fat were removed to weigh the tumor and calculate the tumor growth inhibition rate. The average tumor weight of each group of mice is used as an indicator of efficacy. Tumor growth inhibition rate (%)=(1−the average tumor weight of the treatment group/the average tumor weight of the model group)×100%.

[2] = system: transplanted tumor of human gastric adenocarcinoma cell SGC7901; assay: SGC7901 transplanted tumor in nude mice
Procedure: as §1, with “group: a model group, a cyclophosphamide group,” for “group:”
as §2, §3

[3] = system: transplanted tumor of human hepatoma cell HepG-2; assay: HepG-2 transplanted tumor in nude mice; conditions: for Tumor Volume (mm3) (d 1): d1
Procedure: as §1, with “group: a model group, a cyclophosphamide group,” for “group:”
as §2, §3

[4] = H1299, 25 mg/kg (low dose) i.g. 30 days
[5] = H1299, 50 mg/kg (medium dose) i.g. 30 days
[6] = H1299, 100 mg/kg (high dose) i.g. 30 days
[7] = SGC7901, 12.5 mg/kg (low dose) i.g. 30 days
[8] = SGC7901, 25 mg/kg (medium dose) i.g. 30 days
[9] = SGC7901, 50 mg/kg (high dose) i.g. 30 days
[10] = HepG-2, high dose (100 mg/kg in method) i.g. 30 days
[11] = HepG-2, low dose (25 mg/kg in method) i.g. 30 days
[12] = HepG-2, medium dose (50 mg/kg in method) i.g. 30 days

- mouse weight compared with the model group ([1]; mouse, in vivo): no significant changes
- mouse weight compared with the model group ([2]; mouse, in vivo): no significant changes
- mouse weight compared with the model group ([3]; mouse, in vivo): no significant changes
SMILES: COC1C(OC(C)=O)CC(=O)OC(C)CC=CC=CC(OC2CCC(N(C)C)C(C)O2)C(C)CC(CC=O)C1OC1OC(C)C(OC2CC(C)(O)C(OC(=O)CC(C)C)C(C)O2)C(N(C)C)C1O (stereo not drawn) [Isovaleryl spiramycin II, isovaleryl spiramycin II]
- Inhibition Rate (tumor growth inhibition rate) [1, 4]: 17.32%
- Relative Tumor Proliferation Rate (T/C) [1, 4]: 83.01%
- Relative Tumor Volume (RTV) [1, 4]: 10.64 ± 0.92
- Tumor Volume (d 1) [1, 4]: 139.13 ± 12.26 mm3
- Tumor Volume (d 30) [1, 4]: 1474.57 ± 104.54 mm3
- Tumor Weight [1, 4]: 1.44 ± 0.29 g
- Inhibition Rate (tumor growth inhibition rate) [1, 5]: 44.21%
- Relative Tumor Proliferation Rate (T/C) [1, 5]: 46.94%
- Relative Tumor Volume (RTV) [1, 5]: 6.02 ± 1.07
- Tumor Volume (d 1) [1, 5]: 138.94 ± 20.16 mm3
- Tumor Volume (d 30) [1, 5]: 821.57 ± 90.36 mm3
- Tumor Weight [1, 5]: 0.97 ± 0.16 g
- Inhibition Rate (tumor growth inhibition rate) [1, 6]: 58.37%
- Relative Tumor Proliferation Rate (T/C) [1, 6]: 36.86%
- Relative Tumor Volume (RTV) [1, 6]: 4.72 ± 1.57
- Tumor Volume (d 1) [1, 6]: 136.94 ± 14.60 mm3
- Tumor Volume (d 30) [1, 6]: 634.05 ± 180.18 mm3
- Tumor Weight [1, 6]: 0.73 ± 0.25 g
- tumor volume and relative tumor volume compared with the model group ([1]; H1299, low, medium and high doses, P<0.05): significantly lower
- Inhibition Rate (tumor growth inhibition rate) [2, 7]: 24.44%
- Relative Tumor Proliferation Rate (T/C) [2, 7]: 70.48%
- Relative Tumor Volume (RTV) [2, 7]: 7.90 ± 6.97
- Tumor Volume (d 1) [2, 7]: 134.33 ± 57.77 mm3
- Tumor Volume (d 30) [2, 7]: 1029.72 ± 818.01 mm3
- Tumor Weight [2, 7]: 1.19 ± 0.62 g
- Inhibition Rate (tumor growth inhibition rate) [2, 8]: 41.76%
- Relative Tumor Proliferation Rate (T/C) [2, 8]: 51.42%
- Relative Tumor Volume (RTV) [2, 8]: 6.88 ± 5.66
- Tumor Volume (d 1) [2, 8]: 195.76 ± 76.95 mm3
- Tumor Volume (d 30) [2, 8]: 1094.82 ± 687.01 mm3
- Tumor Weight [2, 8]: 0.91 ± 0.53 g
- Inhibition Rate (tumor growth inhibition rate) [2, 9]: 70.24%
- Relative Tumor Proliferation Rate (T/C) [2, 9]: 36.95%
- Relative Tumor Volume (RTV) [2, 9]: 6.90 ± 7.37
- Tumor Volume (d 1) [2, 9]: 143.85 ± 16.25 mm3
- Tumor Volume (d 30) [2, 9]: 577.98 ± 411.47 mm3
- Tumor Weight [2, 9]: 0.47 ± 0.42 g
- tumor volume and relative tumor volume compared with the model group ([2]; SGC7901, low, medium and high doses, P<0.05): significantly lower
- Relative Tumor Proliferation Rate (T/C) [3, 10]: 39.31%
- tumor growth inhibition rate [3, 10]: 61.56%
- Relative Tumor Proliferation Rate (T/C) [3, 11]: 81.03%
- tumor growth inhibition rate [3, 11]: 21.07%
- tumor volume and relative tumor volume compared with the model group ([3]; HepG-2, low, medium and high doses, P<0.05): significantly lower
- Relative Tumor Proliferation Rate (T/C) [3, 12]: 57.02%
- tumor growth inhibition rate [3, 12]: 31.43%
- Inhibition Rate (%) ([3]; HepG-2 nude mice, 25 mg/kg): 21.07%
- Relative Tumor Proliferation Rate (T/C) ([3]; HepG-2 nude mice, 25 mg/kg): 81.03%
- Relative Tumor Volume (RTV) ([3]; HepG-2 nude mice, 25 mg/kg): 13.57 ± 1.64
- Tumor Weight ([3]; HepG-2 nude mice, 25 mg/kg): 1.92 ± 0.32 g
- Tumor Volume (mm3) (d 1) ([3]; HepG-2 nude mice, 25 mg/kg): 122.82 ± 4.10 mm3
- Tumor Volume (mm3) (d30) ([3]; HepG-2 nude mice, 25 mg/kg): 1666.11 ± 202.07 mm3
- Inhibition Rate (%) ([3]; HepG-2 nude mice, 50 mg/kg): 31.43%
- Relative Tumor Proliferation Rate (T/C) ([3]; HepG-2 nude mice, 50 mg/kg): 57.02%
- Relative Tumor Volume (RTV) ([3]; HepG-2 nude mice, 50 mg/kg): 9.55 ± 2.84
- Tumor Weight ([3]; HepG-2 nude mice, 50 mg/kg): 1.67 ± 0.32 g
- Tumor Volume (mm3) (d 1) ([3]; HepG-2 nude mice, 50 mg/kg): 118.60 ± 4.30 mm3
- Tumor Volume (mm3) (d30) ([3]; HepG-2 nude mice, 50 mg/kg): 1127.90 ± 319.12 mm3
- Inhibition Rate (%) ([3]; HepG-2 nude mice, 100 mg/kg): 61.56%
- Relative Tumor Proliferation Rate (T/C) ([3]; HepG-2 nude mice, 100 mg/kg): 39.31%
- Relative Tumor Volume (RTV) ([3]; HepG-2 nude mice, 100 mg/kg): 6.58 ± 2.48
- Tumor Weight ([3]; HepG-2 nude mice, 100 mg/kg): 0.93 ± 0.41 g
- Tumor Volume (mm3) (d 1) ([3]; HepG-2 nude mice, 100 mg/kg): 118.70 ± 7.20 mm3
- Tumor Volume (mm3) (d30) ([3]; HepG-2 nude mice, 100 mg/kg): 783.73 ± 312.41 mm3
- Body Weight (g) (d1) ([3]; mouse, in vivo, 25 mg/kg): 21.98 ± 1.74 g
- Body Weight (g) (d30) ([3]; mouse, in vivo, 25 mg/kg): 23.35 ± 1.83 g
- Body Weight (g) (d1) ([3]; mouse, in vivo, 50 mg/kg): 20.75 ± 1.86 g
- Body Weight (g) (d30) ([3]; mouse, in vivo, 50 mg/kg): 22.22 ± 1.62 g
- Body Weight (g) (d1) ([3]; mouse, in vivo, 100 mg/kg): 21.48 ± 1.98 g
- Body Weight (g) (d30) ([3]; mouse, in vivo, 100 mg/kg): 22.45 ± 1.28 g
